Starred links: 1 amine or outer side, 2 acyl side, 3 side chain; linkers in the order of their positions; H or OH if unused. Positions of bridges follow the written chain, without caps; N, C: chain ends. Non-standard residues stand in square brackets, D forms with d. Residues, ends and D or L forms follow the SMILES beside them. *: point of attachment. Bip(4'-NHCO-C6H4-3-CH2COOH) = N[C@@H](Cc1ccc(-c2ccc(NC(=O)c3cccc(CC(=O)O)c3)cc2)cc1)C(=O)O; Bip(4'-NHCO-C6H4-4-CH2COOH) = N[C@@H](Cc1ccc(-c2ccc(NC(=O)c3ccc(CC(=O)O)cc3)cc2)cc1)C(=O)O; X78 = O=C(Nc1ccc(-c2ccc(C[C@H](N[*:1])C(=O)[*:2])cc2)cc1)c1n[nH]c2ccccc12; dArg(Nω-CH2C6H4-3-CH2Gua) = N=C(N)NCc1cccc(CNC(=N)NCCC[C@@H](N)C(=O)O)c1; Bip(4'-NH) = O=C([C@H](Cc1ccc(-c2ccc(N[*:3])cc2)cc1)N[*:1])[*:2]; Indazole3carbonyl(1-CH2COOH) = O=C(O)Cn1nc(C(=O)*)c2ccccc21; Bip(4'-COOH) = N[C@@H](Cc1ccc(-c2ccc(C(=O)O)cc2)cc1)C(=O)O; Bip(4'-NHAc) = CC(=O)Nc1ccc(-c2ccc(C[C@H](N)C(=O)O)cc2)cc1; Indole3carbonyl(1-CH2COOH) = O=C(O)Cn1cc(C(=O)*)c2ccccc21; X19 = N=C(NCCC[C@@H](N[*:1])C(=O)[*:2])NCc1ccc2ccccc2c1; dArg(ω-Bn) = N=C(NCCC[C@@H](N)C(=O)O)NCc1ccccc1; Ala(morpholin-4-yl) = N[C@@H](CN1CCOCC1)C(=O)O; Benzoyl(3-OCH2COOH) = O=C(O)COc1cccc(C(=O)*)c1; Phe(3-CONH2) = NC(=O)c1cccc(C[C@H](N)C(=O)O)c1; X85 = N=C(N)c1cccc(C[C@H](N[*:1])C(=O)[*:2])c1; Bip = N[C@@H](Cc1ccc(-c2ccccc2)cc1)C(=O)O; Val(3-OH) = CC(C)(O)[C@H](N)C(=O)O; 2Pal = N[C@@H](Cc1ccccn1)C(=O)O; 3Pal = N[C@@H](Cc1cccnc1)C(=O)O; 2Thi = N[C@@H](Cc1cccs1)C(=O)O; Cha = N[C@@H](CC1CCCCC1)C(=O)O; d(αMeP) = C[C@]1(C(=O)O)CCCN1; Chg = N[C@H](C(=O)O)C1CCCCC1; Tle = CC(C)(C)[C@H](N)C(=O)O; Aze = O=C(O)[C@@H]1CCN1; Sar = CNCC(=O)O

In one assay the target is TNFα (Homo sapiens, UniProt P01375). The experiment in a line: TNF-Induced HEK-Blue Assay. In kind it is cell-based.
Sequence of TNFα (P01375 77-233 limits assumed): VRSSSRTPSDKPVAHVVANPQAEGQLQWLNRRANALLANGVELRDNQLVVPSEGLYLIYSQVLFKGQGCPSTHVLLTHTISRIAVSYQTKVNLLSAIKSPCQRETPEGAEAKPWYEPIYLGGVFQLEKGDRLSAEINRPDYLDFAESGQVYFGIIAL
Details: not given
In turn, `CC(C)C[C@@H]1NC(=O)[C@H](CCCNC(=N)N)NC(=O)[C@H](C(C)C)NC(=O)[C@@H]2CCCN2C(=O)[C@H](C(C)C)NC(=O)[C@@H](CCCNC(=N)NCc2ccc3ccccc3c2)NC(=O)[C@H](CC(=O)O)NC(=O)[C@@H]2CCCN2C(=O)CN(C)C(=O)[C@H](Cc2ccc(-c3ccc(NC(=O)c4nn(CC(=O)O)c5ccccc45)cc3)cc2)NC(=O)[C@H](Cc2ccc(-c3ccccc3)cc2)NC(=O)[C@H](CN2CCOCC2)NC(=O)CSC[C@@H](C(=O)NCC(N)=O)NC1=O` [Example 468] ({CH2CO}-[Ala(morpholin-4-yl)][Bip][Bip(4'-NH)](Indazole3carbonyl(1-CH2COOH))[Sar]PD[X19]VPVRLCG-NH2; thioether N-13) gave an IC50 below 50 nM. On to `CC(C)C[C@@H]1NC(=O)[C@H](CCCNC(=N)N)NC(=O)[C@H](C(C)C)NC(=O)[C@@H]2CCCN2C(=O)[C@H](C(C)C)NC(=O)[C@@H](CCCNC(=N)NCc2cccc(CNC(=N)N)c2)NC(=O)[C@H](CC(=O)O)NC(=O)[C@@H]2CCCN2C(=O)CN(C)C(=O)[C@H](Cc2ccc(-c3ccc(NC(=O)c4cn(CC(=O)O)c5ccccc45)cc3)cc2)NC(=O)[C@H](Cc2ccc(-c3ccccc3)cc2)NC(=O)[C@H](CN2CCOCC2)NC(=O)CSC[C@@H](C(=O)NCC(N)=O)NC1=O` [Example 569] ({CH2CO}-[Ala(morpholin-4-yl)][Bip][Bip(4'-NH)](Indole3carbonyl(1-CH2COOH))[Sar]PD[dArg(Nω-CH2C6H4-3-CH2Gua)]VPVRLCG-NH2; thioether N-13), for which the IC50 is below 50 nM. For the compound `CC(C)C[C@@H]1NC(=O)[C@H](Cc2cccc(C(N)=O)c2)NC(=O)[C@H](C(C)C)NC(=O)[C@@H]2CCCN2C(=O)[C@H](C(C)C)NC(=O)[C@@H](CCCNC(=N)NCc2cccc(CNC(=N)N)c2)NC(=O)[C@H](CC(=O)O)NC(=O)[C@H](Cc2ccc(O)cc2)NC(=O)CN(C)C(=O)[C@H](Cc2ccc(-c3ccc(NC(=O)c4nn(CC(=O)O)c5ccccc45)cc3)cc2)NC(=O)[C@H](Cc2ccc(-c3ccccc3)cc2)NC(=O)[C@H](CN2CCOCC2)NC(=O)CSC[C@@H](C(=O)NCC(N)=O)NC1=O` [Example 620] ({CH2CO}-[Ala(morpholin-4-yl)][Bip][Bip(4'-NH)](Indazole3carbonyl(1-CH2COOH))[Sar]YD[dArg(Nω-CH2C6H4-3-CH2Gua)]VPV[Phe(3-CONH2)]LCG-NH2; thioether N-13), the IC50 is below 50 nM.

The same assay, now with this note: HEK-Blue-CD40L cells, NF-kB-driven secreted alkaline phosphatase reporter; TNFα 0.5 ng/ml; 18 h; read-out: TNF induced HEK-Blue assay IC50 value.
For `CC(C)C[C@@H]1NC(=O)[C@H](Cc2cccc(C(N)=O)c2)NC(=O)[C@H](C(C)C)NC(=O)[C@@H]2CCCN2C(=O)[C@H](C(C)C)NC(=O)[C@@H](CCCNC(=N)NCc2ccccc2)NC(=O)[C@H](CC(=O)O)NC(=O)[C@H](Cc2ccc(O)cc2)NC(=O)CN(C)C(=O)[C@H](Cc2ccc(-c3ccc(NC(=O)c4ccc(CC(=O)O)cc4)cc3)cc2)NC(=O)[C@H](Cc2ccc(-c3ccccc3)cc2)NC(=O)[C@H](CN2CCOCC2)NC(=O)CSC[C@@H](C(=O)NCC(N)=O)NC1=O` [Example 602] ({CH2CO}-[Ala(morpholin-4-yl)][Bip][Bip(4'-NHCO-C6H4-4-CH2COOH)][Sar]YD[dArg(ω-Bn)]VPV[Phe(3-CONH2)]LCG-NH2; thioether N-13), the IC50 is below 50 nM. In the case of `CC[C@H](C)[C@@H]1NC(=O)[C@@H]2CCCN2C(=O)[C@H]([C@@H](C)CC)NC(=O)[C@@H](CCCNC(=N)N)NC(=O)[C@H](CC(=O)O)NC(=O)[C@H](Cc2ccccn2)NC(=O)CN(C)C(=O)[C@H](Cc2ccc(-c3ccc(NC(C)=O)cc3)cc2)NC(=O)[C@H](Cc2ccc(-c3ccccc3)cc2)NC(=O)[C@H](C(C)(C)C)NC(=O)CSC[C@@H](C(=O)NCC(N)=O)NC(=O)[C@H](CC(C)C)NC(=O)[C@H](Cc2cccc(C(=N)N)c2)NC1=O` [Example 297] ({CH2CO}-[Tle][Bip][Bip(4'-NHAc)][Sar][2Pal]D[dR]IPI[X85]LCG-NH2; thioether N-13), the IC50 was below 50 nM. Regarding `CC(C)C[C@@H]1NC(=O)[C@H](Cc2ccc(O)cc2)NC(=O)[C@H](C(C)C)NC(=O)[C@@H]2CCCN2C(=O)[C@H](C(C)C)NC(=O)[C@@H](CCCNC(=N)NCc2ccccc2)NC(=O)[C@H](CC(=O)O)NC(=O)[C@@H]2CCCN2C(=O)CN(C)C(=O)[C@H](Cc2ccc(-c3ccc(NC(=O)c4cccc(CC(=O)O)c4)cc3)cc2)NC(=O)[C@H](Cc2ccc(-c3ccc(C(=O)O)cc3)cc2)NC(=O)[C@H](CC2CCCCC2)NC(=O)CSC[C@@H](C(=O)NCC(N)=O)NC1=O` [Example 583] ({CH2CO}-[Cha][Bip(4'-COOH)][Bip(4'-NHCO-C6H4-3-CH2COOH)][Sar]PD[dArg(ω-Bn)]VPVYLCG-NH2; thioether N-13), the half-inhibitory concentration (IC50) lay within 50 to 200 nM. Still for that read-out and setting: the same measure for `CC(=O)Nc1ccc(-c2ccc(C[C@@H]3NC(=O)[C@H](Cc4ccc(-c5ccccc5)cc4)NC(=O)[C@H](CN4CCOCC4)NC(=O)CSC[C@@H](C(=O)NCC(N)=O)NC(=O)[C@H](CC(C)C)NC(=O)[C@H](Cc4cccc(C(N)=O)c4)NC(=O)[C@H](C4CCCCC4)NC(=O)[C@@H]4CCCN4C(=O)[C@H](C(C)C)NC(=O)[C@@H](CCCNC(=N)N)NC(=O)[C@H](CC(=O)O)NC(=O)[C@@H]4CCCN4C(=O)CN(C)C3=O)cc2)cc1` [Example 312] ({CH2CO}-[Ala(morpholin-4-yl)][Bip][Bip(4'-NHAc)][Sar]PD[dR]VP[Chg][Phe(3-CONH2)]LCG-NH2; thioether N-13): 200 to 2000 nM; for `CC[C@H](C)[C@@H]1NC(=O)[C@@H]2CCN2C(=O)[C@H]([C@@H](C)CC)NC(=O)[C@@H](CCCNC(=N)N)NC(=O)[C@H](CC(=O)O)NC(=O)[C@H](Cc2ccc(O)cc2)NC(=O)CN(C)C(=O)[C@H](Cc2ccc(-c3ccc(NC(=O)c4cccc(OCC(=O)O)c4)cc3)cc2)NC(=O)[C@H](Cc2ccc(-c3ccccc3)cc2)NC(=O)[C@H](C(C)(C)C)NC(=O)CSC[C@@H](C(=O)NCC(N)=O)NC(=O)[C@H](CC(C)C)NC(=O)[C@H](Cc2ccc(O)cc2)NC1=O` [Example 378] ({CH2CO}-[Tle][Bip][Bip(4'-NH)](Benzoyl(3-OCH2COOH))[Sar]YD[dR]I[Aze]IYLCG-NH2; thioether N-13): below 50 nM. Same read-out and setting: the same measure for `CC(=O)Nc1ccc(-c2ccc(C[C@@H]3NC(=O)[C@H](Cc4ccc(-c5ccccc5)cc4)NC(=O)[C@H](CN4CCOCC4)NC(=O)CSC[C@@H](C(=O)NCC(N)=O)NC(=O)[C@H](CC(C)C)NC(=O)[C@H](Cc4ccccc4)NC(=O)[C@H](C(C)C)NC(=O)[C@@H]4CCCN4C(=O)[C@H](C(C)C)NC(=O)[C@@H](CCCNC(=N)N)NC(=O)[C@H](CC(=O)O)NC(=O)[C@H](Cc4ccccc4)NC(=O)CN(C)C3=O)cc2)cc1` [Example 174] ({CH2CO}-[Ala(morpholin-4-yl)][Bip][Bip(4'-NHAc)][Sar]FD[dR]VPVFLCG-NH2; thioether N-13): 50 to 200 nM.

Consider `CC(=O)Nc1ccc(-c2ccc(C[C@@H]3NC(=O)[C@H](Cc4ccc(-c5ccccc5)cc4)NC(=O)[C@H](CN4CCOCC4)NC(=O)CSC[C@@H](C(=O)NCC(N)=O)NC(=O)[C@H](CC(C)C)NC(=O)[C@H](Cc4cccnc4)NC(=O)[C@H](C(C)C)NC(=O)[C@@H]4CCCN4C(=O)[C@H](C(C)C)NC(=O)[C@@H](CCCNC(=N)N)NC(=O)[C@H](CC(=O)O)NC(=O)[C@H](Cc4ccc(O)cc4)NC(=O)CN(C)C3=O)cc2)cc1` [Example 223] ({CH2CO}-[Ala(morpholin-4-yl)][Bip][Bip(4'-NHAc)][Sar]YD[dR]VPV[3Pal]LCG-NH2; thioether N-13), for which the IC50 is below 50 nM.

With `CC(C)C[C@@H]1NC(=O)[C@H](Cc2ccc(O)cc2)NC(=O)[C@H](C(C)C)NC(=O)[C@@H]2CCCN2C(=O)[C@H](C(C)C)NC(=O)[C@@H](CCCNC(=N)N)NC(=O)[C@H](CC(=O)O)NC(=O)[C@@]2(C)CCCN2C(=O)CN(C)C(=O)[C@H](Cc2ccc(-c3ccccc3)cc2)NC(=O)[C@H](Cc2ccc(-c3ccccc3)cc2)NC(=O)[C@H](CN2CCOCC2)NC(=O)CSC[C@@H](C(=O)NCC(N)=O)NC1=O` [Example 102] ({CH2CO}-[Ala(morpholin-4-yl)][Bip][Bip][Sar][d(αMeP)]D[dR]VPVYLCG-NH2; thioether N-13), the IC50 lay in the range of 200 to 2000 nM. Still for that read-out and setting: the same measure for `CC(C)C[C@@H]1NC(=O)[C@H](Cc2ccc(O)cc2)NC(=O)[C@H](C(C)C)NC(=O)[C@@H]2CCCN2C(=O)[C@H](C(C)C)NC(=O)[C@H](CCCNC(=N)N)NC(=O)[C@H](CC(=O)O)NC(=O)[C@H](Cc2ccc(O)cc2)NC(=O)CN(C)C(=O)[C@H](Cc2ccc(-c3ccccc3)cc2)NC(=O)[C@H](Cc2ccc(-c3ccccc3)cc2)NC(=O)[C@H](C(C)(C)O)NC(=O)CSC[C@@H](C(=O)NCC(N)=O)NC1=O` [Example 50] ({CH2CO}-[Val(3-OH)][Bip][Bip][Sar]YDRVPVYLCG-NH2; thioether N-13): 50 to 200 nM; for `CC(C)C[C@@H]1NC(=O)[C@H](CCCNC(=N)N)NC(=O)[C@H](C(C)C)NC(=O)[C@@H]2CCCN2C(=O)[C@H](C(C)C)NC(=O)[C@@H](CCCNC(=N)N)NC(=O)[C@H](CC(=O)O)NC(=O)[C@@H]2CCCN2C(=O)CN(C)C(=O)[C@H](Cc2ccc(-c3ccc(NC(=O)c4n[nH]c5ccccc45)cc3)cc2)NC(=O)[C@H](Cc2ccc(-c3ccccc3)cc2)NC(=O)[C@H](CN2CCOCC2)NC(=O)CSC[C@@H](C(=O)NCC(N)=O)NC1=O` [Example 343] ({CH2CO}-[Ala(morpholin-4-yl)][Bip][X78][Sar]PD[dR]VPVRLCG-NH2; thioether N-13): below 50 nM; for `CC(C)C[C@@H]1NC(=O)[C@H](Cc2cccs2)NC(=O)[C@H](C(C)C)NC(=O)[C@@H]2CCCN2C(=O)[C@H](C(C)C)NC(=O)[C@@H](CCCNC(=N)N)NC(=O)[C@H](CC(=O)O)NC(=O)[C@H](Cc2ccccn2)NC(=O)CN(C)C(=O)[C@H](Cc2ccc(-c3ccc(NC(=O)c4cccc(OCC(=O)O)c4)cc3)cc2)NC(=O)[C@H](Cc2ccc(-c3ccc(C(=O)O)cc3)cc2)NC(=O)[C@H](C(C)(C)C)NC(=O)CSC[C@@H](C(=O)NCC(N)=O)NC1=O` [Example 615] ({CH2CO}-[Tle][Bip(4'-COOH)][Bip(4'-NH)](Benzoyl(3-OCH2COOH))[Sar][2Pal]D[dR]VPV[2Thi]LCG-NH2; thioether N-13): 50 to 200 nM.

The term IC50 denotes the concentration that inhibits the measured activity by half.

Source of the values: patent publication US20250145665A1, “MACROCYCLIC PEPTIDES USEFUL AS MODULATORS OF TNF ALPHA” (Bristol-Myers Squibb Company, priority 2023, published 2025).
